The values below come from patent US9266834B2, “1, 4-disubstituted 3-cyano-pyridone derivatives and their use as positive allosteric modulators of MGLUR2-receptors” (JANSSEN PHARMACEUTICALS, INC., priority 2006, dated 2016).

One data set addresses T1, human mGluR2 receptor (Homo sapiens, UniProt Q14416).
T1 construct: expressed in transfected cells; host or cells: CHO cells (membrane preparation)
The data set is described as follows: [35S]GTPγS binding assay (GTPγS-PAM): positive allosteric modulation in presence of glutamate at EC25, membranes from transfected CHO cells. Particulars: in presence of mGluR2 agonist glutamate at predetermined EC25 concentration, averages of duplicate values of 11-concentration response curves, read-out: GTPgS - hR2 PAM pEC50 (converted). In kind it is biochemical. Put shortly: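 Potentiation was read as filter-retained [35S]GTPγS (0.1 nM final, 30 min, 30° C.) after a 30 min, 30° C. preincubation of human mGluR2 CHO membranes (15 μg/well) with EC25 glutamate and 11 modulator concentrations spanning 0.3 nM-50 μM. The buffer was 50 mM HEPES pH 7.4, NaCl, MgCl2, 50 μM GDP and saponin. Cold 10 μM GTP defined nonspecific binding; data were fitted by a four-parameter logistic.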
(In general: GTPγS resists hydrolysis and so accumulates on activated G proteins.)

T1 sequence (Q14416 19-872): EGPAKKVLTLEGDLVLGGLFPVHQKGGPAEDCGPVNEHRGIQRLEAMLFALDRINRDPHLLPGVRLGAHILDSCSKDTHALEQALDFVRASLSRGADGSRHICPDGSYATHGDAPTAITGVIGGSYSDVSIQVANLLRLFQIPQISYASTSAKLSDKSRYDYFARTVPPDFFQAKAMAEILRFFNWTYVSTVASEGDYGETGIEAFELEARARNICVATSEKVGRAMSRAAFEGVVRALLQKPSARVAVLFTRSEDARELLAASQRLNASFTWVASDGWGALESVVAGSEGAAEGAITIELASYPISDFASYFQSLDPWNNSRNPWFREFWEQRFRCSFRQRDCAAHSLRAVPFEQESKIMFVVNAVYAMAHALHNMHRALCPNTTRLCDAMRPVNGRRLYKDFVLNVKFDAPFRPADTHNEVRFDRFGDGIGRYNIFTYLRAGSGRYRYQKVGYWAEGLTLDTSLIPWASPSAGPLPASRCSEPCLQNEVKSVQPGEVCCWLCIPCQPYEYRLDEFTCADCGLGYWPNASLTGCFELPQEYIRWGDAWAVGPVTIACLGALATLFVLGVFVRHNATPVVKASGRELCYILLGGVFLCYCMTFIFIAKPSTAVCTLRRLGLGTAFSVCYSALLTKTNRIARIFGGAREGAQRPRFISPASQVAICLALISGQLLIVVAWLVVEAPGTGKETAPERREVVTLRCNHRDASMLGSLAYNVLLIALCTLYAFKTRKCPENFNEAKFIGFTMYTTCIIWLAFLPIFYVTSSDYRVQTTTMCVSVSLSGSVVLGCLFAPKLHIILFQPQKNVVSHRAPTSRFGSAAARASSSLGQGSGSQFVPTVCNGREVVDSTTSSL

For orientation: melting point means the temperature of the solid-liquid transition. `CC(C)CCn1ccc(-c2ccc(C(C#N)c3ccn(CCC(C)C)c(=O)c3C#N)cc2)c(C#N)c1=O` (centres unmarked) [1-255] yielded a melting point of 233 °C. In addition, the EC50 on human mGluR2 receptor is 794 nM.

With `CC(C)CCn1ccc(-c2ccc(NCc3cccc(C#N)c3)cc2)c(C#N)c1=O` [1-204], the melting point came to 157 °C. At human mGluR2 receptor, the EC50 was 25.1 nM. The matching figures for `CC(C)CCn1ccc(-c2ccc(NCc3cccc(F)c3)cc2)c(C#N)c1=O` [1-199]: 136 °C and 63.1 nM. Consider `Cc1ccc(Cn2ccc(-c3ccco3)c(C#N)c2=O)cc1` [1-018], for which the melting point was determined as 155 °C. For the same molecule, the EC50 on human mGluR2 receptor is 2510 nM. On to `CC(C)CCn1ccc(-c2cccc(NS(C)(=O)=O)c2)c(C#N)c1=O` [1-215], for which the melting point came to 70 °C. For the same molecule, on human mGluR2 receptor, the EC50 was 3160 nM. The matching figures for `CC(C)CCn1ccc(-c2cccc(-c3ccccc3)c2)c(C#N)c1=O` [1-094]: 131 °C and 501 nM. On the same counts, the results for `CC(C)CCn1ccc(OC2CCN(Cc3ccccc3)CC2)c(C#N)c1=O` [3-007] are 208 °C and 6310 nM.

On to `COc1cccc(Oc2ccc(-c3ccn(CCC(C)C)c(=O)c3C#N)cc2)c1` [1-143], for which the melting point worked out at 118 °C. Further, on human mGluR2 receptor, the EC50 is 79.4 nM. On the same counts, the results for `CC(C)CCn1ccc(-c2ccc(CN(C)Cc3ccncc3)cc2)c(C#N)c1=O` [1-211] are 142 °C and 631 nM. The matching figures for `COc1ccc(-c2ccn(CCC(C)C)c(=O)c2C#N)cc1OC` [1-110, 4-(3,4-dimethoxyphenyl)-3-cyano-1-(3-methylbutyl)pyridine-2(1H)-one]: 52 °C and 2510 nM. In turn, `CC(C)CCn1ccc(-c2ccc3c(ccn3Cc3ccncc3)c2)c(C#N)c1=O` [5-020] registered a melting point of 232 °C. For the same molecule, on human mGluR2 receptor, the EC50 is 25.1 nM. `N#Cc1c(N2CCN(c3ncccc3C(F)(F)F)CC2)ccn(Cc2ccc(OC(F)(F)F)cc2)c1=O` [2-048] had a melting point of 258 °C. The EC50 on human mGluR2 receptor was 79.4 nM. On the same counts, the results for `CC(C)CCn1ccc(N2CCC3Oc4ccccc4OC3C2)c(C#N)c1=O` (centres unmarked) [5-037] are 217 °C and 398 nM. `CC(C)CCn1ccc(-c2ccc(CCCO)cc2)c(C#N)c1=O` [1-095, 3-cyano-4-(4-hydroxypropylphenyl)-1-(3-methylbutyl)pyridine-2(1H)-one] returned a melting point of 85 °C. In addition, the EC50 on human mGluR2 receptor is 631 nM. The matching figures for `CC(C)CCn1ccc(-c2ccc(OCC#N)cc2)c(C#N)c1=O` [1-131]: 132 °C and 2510 nM. `CC(C)CCn1ccc(-c2ccccc2)c(C#N)c1=O` [1-084]: the melting point was determined as 142 °C.

Molecule `CCCn1ccc(-c2cccs2)c(C#N)c1=O` [1-050] returned a melting point of 135 °C. `CNC(=O)COc1ccc(-c2ccn(CCC(C)C)c(=O)c2C#N)cc1` [1-127]: the melting point is 156 °C. Same read-out and setting: under `CC(=O)NCc1cccc(-c2ccn(CCC(C)C)c(=O)c2C#N)c1` [1-178] stands 157 °C; under `CC(C)CCn1ccc(-c2ccc(-n3ccnc3)cc2)c(C#N)c1=O` [1-235], 151 °C; under `CC(C)CCn1ccc(OCCN2CCN(c3ccccn3)CC2)c(C#N)c1=O` [2-036], 159 °C.

For `CC(C)CCn1ccc(-c2ccc(CO)cc2)c(C#N)c1=O` [1-098], the melting point came to 145 °C. As to `CC(C)CCn1ccc(N2CCc3ccccc3C2)c(C#N)c1=O` [5-003], at human mGluR2 receptor, the EC50 is 251 nM. As to `CC(C)CCn1ccc(-c2ccc(N)cc2)c(C#N)c1=O` [1-170], the EC50 at human mGluR2 receptor is 794 nM. As for `CC(C)CCn1ccc(-c2ccc3sccc3c2)c(C#N)c1=O` [1-259], the EC50 at human mGluR2 receptor was 200 nM. With `CCCCn1ccc(-c2cccc(Oc3ccncc3C(F)(F)F)c2)c(C#N)c1=O` [1-069], at human mGluR2 receptor, the EC50 is 2510 nM. For `N#Cc1c(N2CCC(c3ccccc3)CC2)ccn(CC2CC2)c1=O` [4-047, 3-cyano-1-cyclopropylmethyl-4-(4-phenyl-piperidin-1-yl)-pyridine-2(1H)-one], the melting point came to 128 °C. For `CC(C)CCn1ccc(-c2ccc(N(C)Cc3ccccc3)cc2)c(C#N)c1=O` [1-196], the EC50 at human mGluR2 receptor was 39.8 nM. `CC(C)CCn1ccc(-c2ccc(CSc3ccncc3)cc2)c(C#N)c1=O` [1-258]: the EC50 at human mGluR2 receptor was 316 nM. Same read-out and setting: the value for `COc1ccc(-c2ccn(Cc3ccc(F)cc3)c(=O)c2C#N)cc1` [1-022] was 316 nM; that for `CC(C)CCn1ccc(C2CCN(Cc3cccc(C(F)(F)F)c3)CC2)c(C#N)c1=O` [3-014] was 200 nM. Regarding `Cc1ccccc1Cn1ccc(-c2cccs2)c(C#N)c1=O` [1-015], at human mGluR2 receptor, the EC50 is 3980 nM.

Consider `CC(C)CCn1ccc(Nc2ccc(N3CCOCC3)cc2)c(C#N)c1=O` [1-300], for which the EC50 at human mGluR2 receptor is 2000 nM.

For the molecule `CC(C)CCn1ccc(OCCOCc2ccccc2)c(C#N)c1=O` [1-281], the melting point amounted to 83 °C.

With `CC(C)CCn1ccc(CCc2ccccc2)c(C#N)c1=O` [1-260], the EC50 on human mGluR2 receptor is 1260 nM.

`N#Cc1c(N2CCN(Cc3ccccc3)CC2)ccn(CCOc2ccccc2)c1=O` [2-053]: the EC50 at human mGluR2 receptor is 631 nM.

Take `N#Cc1c(N2CCC(O)(c3cccnc3)CC2)ccn(Cc2ccc(OC(F)(F)F)cc2)c1=O` [4-063]: the EC50 on human mGluR2 receptor is 5010 nM. Same read-out and setting: under `CC(C)CCn1ccc(OCc2ccc(C#N)cc2)c(C#N)c1=O` [1-286] stands 3980 nM.

As to `COCCNc1ccc(-c2ccn(CCC(C)C)c(=O)c2C#N)cc1` [1-174], at human mGluR2 receptor, the EC50 is 1580 nM. Turning to `CC(C)CCn1ccc(OCCOc2ccccc2)c(C#N)c1=O` [1-280], the EC50 on human mGluR2 receptor is 1580 nM. Same read-out and setting: the value for `N#Cc1c(N2CCC(c3ccccc3)CC2)ccn(CCOc2ccccc2)c1=O` [4-066] was 31.6 nM; that for `CC(C)CCn1ccc(N2CCC(CN(C)Cc3ccc(F)cc3)CC2)c(C#N)c1=O` [4-030] was 1260 nM; that for `CCCCn1ccc(N2CCC(c3cccnc3)CC2)c(C#N)c1=O` [4-002] was 3980 nM.

`COc1ccc(COc2ccn(CCC(C)C)c(=O)c2C#N)cc1F` [1-283]: the EC50 at human mGluR2 receptor is 794 nM.

Regarding `COc1ccc(-c2ccn(Cc3ccc(Cl)cc3)c(=O)c2C#N)cc1` [1-027], the EC50 on human mGluR2 receptor is 501 nM. The same measure, in the same setting: the value for `Cc1ccc(C2(O)CCN(c3ccn(Cc4ccc(OC(F)(F)F)cc4)c(=O)c3C#N)CC2)cn1` [4-053] was 3160 nM. In turn, `CC(C)CCn1ccc(-c2ccc(CN3CCOCC3)cc2)c(C#N)c1=O` [1-229] came in with a melting point of 148 °C. On to `CC(C)CCn1ccc(-c2ccc(N3CCCC3=O)cc2)c(C#N)c1=O` [1-249], for which the EC50 at human mGluR2 receptor was 3980 nM.

As to `COC1(c2ccccc2)CCN(c2ccn(CCC(C)C)c(=O)c2C#N)CC1` [4-045], on human mGluR2 receptor, the EC50 is 126 nM. Still for that read-out and setting: under `N#Cc1c(-c2ccccc2)ccn(CCOc2ccccc2)c1=O` [1-047] stands 2510 nM; under `CC(C)CCn1ccc(OCc2ccc(Br)cc2)c(C#N)c1=O` [1-278], 316 nM. The same measure, in the same setting: under `CCCCn1ccc(N2CCC(Oc3ccccn3)CC2)c(C#N)c1=O` [4-005] stands 501 nM; under `CC(C)CCn1ccc(-c2ccc(OCC3CC3)cc2)c(C#N)c1=O` [1-133], 200 nM. Same read-out and setting: the value for `CC(C)CCn1ccc(N[C@@H]2C[C@H]2c2ccccc2)c(C#N)c1=O` (racemic) [1-304] was 2000 nM. Take `COc1cc(-c2ccn(CCC(C)C)c(=O)c2C#N)ccc1OCCO` [1-109]: on human mGluR2 receptor, the EC50 was 5010 nM. On to `CC(C)CCn1ccc(-c2ccc(OCCOC3CCCCO3)cc2)c(C#N)c1=O` (centres unmarked) [1-137], for which the EC50 at human mGluR2 receptor was 1000 nM.

Take `Cc1ccc(N2CCN(c3ccn(CCC(C)C)c(=O)c3C#N)CC2)nc1` [2-025]: the EC50 at human mGluR2 receptor was 794 nM. The same measure, in the same setting: under `CC(C)CCn1ccc(N(C)Cc2ccccc2)c(C#N)c1=O` [1-303] stands 3160 nM. The molecule `CC(C)CCn1ccc(-c2ccc(CCC(=O)O)cc2)c(C#N)c1=O` [1-240] yielded a melting point of 169 °C. Turning to `CC(=O)COc1ccc(-c2ccn(CCC(C)C)c(=O)c2C#N)cc1` [1-118], the EC50 at human mGluR2 receptor is 2000 nM.

As to `N#Cc1c(Nc2ccc(Oc3ccncc3)cc2)ccn(CC2CC2)c1=O` [1-295], at human mGluR2 receptor, the EC50 was 3980 nM. Still for that read-out and setting: under `CC(C)CCn1ccc(N2CCOc3ccccc32)c(C#N)c1=O` [5-030] stands 6310 nM.

With `CC(C)CCn1ccc(-c2ccc(C(=O)NCc3ccncc3)cc2)c(C#N)c1=O` [1-213], the melting point was found to be 96 °C.

`CCCCn1ccc(N2CCC(Oc3ccc(C#N)cc3)CC2)c(C#N)c1=O` [4-009]: the EC50 on human mGluR2 receptor was 501 nM.

With `CC(C)CCn1ccc(-n2ncc3ccccc32)c(C#N)c1=O` [5-029], the melting point was 234 °C. `CCCCn1ccc(-c2ccc3c(cnn3Cc3ccccn3)c2)c(C#N)c1=O` [5-023]: the EC50 at human mGluR2 receptor is 794 nM. Same read-out and setting: under `CC(C)CCn1ccc(-c2ccc(C3(C(N)=O)CC3)cc2)c(C#N)c1=O` [1-246] stands 3980 nM. As for `N#Cc1c(C#Cc2ccncc2)ccn(CC2CCCCC2)c1=O` [5-049], the EC50 at human mGluR2 receptor is 1580 nM.

On to `COc1cc(-c2ccn(CCC(C)C)c(=O)c2C#N)ccc1OCc1cccnc1` [1-166], for which the EC50 on human mGluR2 receptor is 1580 nM.

Regarding `CC(C)CCn1ccc(-c2ccc(N3Cc4ccccc4C3)cc2)c(C#N)c1=O` [1-237], the EC50 at human mGluR2 receptor is 398 nM. Still for that read-out and setting: the value for `Cc1onc(-c2ccccc2)c1COc1ccn(CCC(C)C)c(=O)c1C#N` [5-045] was 3980 nM.

Take `CC1COCC(C)N1Cc1ccc(-c2ccn(Cc3ccc(OC(F)(F)F)cc3)c(=O)c2C#N)cc1` (centres unmarked) [1-036]: the EC50 on human mGluR2 receptor is 631 nM.

Regarding `CC(C)CCn1ccc(OCCc2ccccc2)c(C#N)c1=O` [1-276], the EC50 at human mGluR2 receptor is 2510 nM. For the molecule `CC(C)CCn1ccc(-c2ccc(-n3ccnn3)cc2)c(C#N)c1=O` [1-236], the EC50 on human mGluR2 receptor was 2000 nM.
